From PubChem BioAssay AID602334 (Sanford-Burnham Center for Chemical Genomics, 2012)
“And” between values parts separate entries of the source, which are not always exact repeats. Equal entries are not always repeated. The source made the active and inactive calls. The rule behind the calls is not given here.

Molecular target: Neurotensin receptor type 2 (Homo sapiens) (UniProt O95665)
Assay: activation of neurotensin receptor 2 – imaging, image-based, set 2, selectivity assay for NTR1 agonist project, SAR follow-up (AID 602334)
Details: NTR2-expressing cells, image-based receptor agonism assay

Neurotensin receptor type 2 (Homo sapiens), sequence (O95665 whole entry, looked up): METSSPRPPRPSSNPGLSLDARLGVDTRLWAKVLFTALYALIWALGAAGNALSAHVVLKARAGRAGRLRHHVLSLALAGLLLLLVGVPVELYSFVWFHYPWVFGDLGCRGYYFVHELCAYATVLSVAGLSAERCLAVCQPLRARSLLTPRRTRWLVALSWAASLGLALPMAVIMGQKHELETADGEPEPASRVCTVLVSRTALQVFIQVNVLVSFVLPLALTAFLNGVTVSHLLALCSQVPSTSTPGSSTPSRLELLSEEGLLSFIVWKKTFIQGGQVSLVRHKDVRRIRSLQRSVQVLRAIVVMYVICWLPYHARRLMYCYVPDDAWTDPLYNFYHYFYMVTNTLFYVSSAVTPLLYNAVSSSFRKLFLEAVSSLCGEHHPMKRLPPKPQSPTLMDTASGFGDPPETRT

EC50	SMILES
14.7 µM	COc1ccc(Cn2cc3c(-c4ccc(F)cc4)nnc-3c3cc(OC)c(OC)cc32)cc1
10.6 µM	COc1ccc(-c2nnc3c4cc(OC)c(OC)cc4n(Cc4ccc(C)cc4)cc2-3)cc1
11 µM	COc1cc2c3nnc(-c4ccc(F)cc4)c-3cn(Cc3ccc(C)cc3C)c2cc1OC
> 80 µM (inactive)	COc1cc2nc(CCN3CCN(c4ccccc4OC)CC3)nc(N3CCN(c4ccccc4OC)CC3)c2cc1OC
> 80 µM (inactive)	COc1ccc2nc(C3CC3)nc(N3CCN(c4ccccc4OC)CC3)c2c1
> 80 µM (inactive)	COc1cc2nc(Cc3ccccc3)nc(N3CCN(c4ccccc4OC)CC3)c2cc1OC
> 80 µM (inactive)	Fc1ccc(-c2nnc3c4cc5c(cc4n(Cc4ccccc4)cc2-3)OCO5)cc1
> 80 µM (inactive)	COc1cc2nc(C3CCCC3)nc(N3CCN(c4ccccc4OC)CC3)c2cc1OC
> 80 µM (inactive)	COc1cc2nc(C3CCC3)nc(N3CCN(c4c(C)cccc4C)CC3)c2cc1OC
inactive	Fc1ccc(Cn2cc3c(-c4ccc(F)cc4)nnc-3c3cc4c(cc32)OCO4)cc1
> 80 µM (inactive)	COc1cc2c3nnc(-c4ccc(Cl)cc4)c-3cn(Cc3ccc(C)cc3)c2cc1OC
inactive	CCc1ccc(-c2nnc3c4cc(OC)c(OC)cc4n(Cc4ccc(F)cc4)cc2-3)cc1
> 80 µM (inactive)	COc1cccc(OC)c1-c1cc(C(=O)N[C@@H](CC(C)C)C(=O)O)nn1-c1ccnc2cc(Cl)ccc12
> 80 µM (inactive)	COc1cc2nc(C3CC3)nc(N3CCN(C(=O)OC(C)(C)C)CC3)c2cc1OC
> 80 µM (inactive)	COc1ccc(N2CCN(c3nc(C4CCC4)nc4cc(OC)c(OC)cc34)CC2)c(OC)c1
> 80 µM (inactive)	COc1cc2nc(C3CC3)nc(N3CCN(Cc4ccc(C)cc4)CC3)c2cc1OC
> 80 µM (inactive)	Cc1ccc(Cn2cc3c(-c4ccc(F)cc4)nnc-3c3cc4c(cc32)OCO4)cc1
9.39 µM and 7.28 µM	COc1cc2c3nnc(-c4ccc(F)cc4)c-3cn(Cc3ccccc3)c2cc1OC
> 80 µM (inactive)	COc1cc2nc(C3CC3)nc(N3CCN(C(=O)c4ccccc4)CC3)c2cc1OC
9.08 µM	COc1cc2c3nnc(-c4ccc(C)cc4)c-3cn(Cc3ccc(F)cc3)c2cc1OC
> 80 µM (inactive)	C=Cc1nc(N2CCN(c3ccccc3OC)CC2)c2cc(OC)c(OC)cc2n1
> 80 µM (inactive)	COc1cc2nc(C3CC3)nc(N3CCNCC3)c2cc1OC
6.91 µM	COc1cc2c3nnc(-c4ccc(F)cc4)c-3cn(Cc3ccccc3C)c2cc1OC

EC50	SMILES
17 µM	COc1ccc2c(c1)c1nnc(-c3ccc(F)cc3)c-1cn2Cc1ccccc1
inactive	COc1ccc2c(c1)c1nnc(-c3ccc(F)cc3)c-1cn2Cc1ccc(F)cc1
> 80 µM (inactive)	COc1cc2nc(C3CCC3)nc(N3CCN(c4ccccn4)CC3)c2cc1OC
inactive	COc1cc2c3nnc(-c4ccc(C)c(C)c4)c-3cn(Cc3ccc(F)cc3)c2cc1OC
> 80 µM (inactive)	COc1cc2nc(C3CCC3)nc(N3CCN(c4ccccc4OC)CC3)c2cc1OC
> 80 µM (inactive)	CC(C)C[C@H](NC(=O)c1cn(-c2ccnc3cc(Cl)ccc23)c(-c2c(Cl)cccc2Cl)n1)C(=O)O
> 80 µM (inactive)	COc1cc2nc(C3CCC3)nc(N3CCN(c4ccccc4F)CC3)c2cc1OC
> 80 µM (inactive)	COc1cc2nc(C3CC3)nc(N3CCN(S(=O)(=O)c4ccccc4)CC3)c2cc1OC
> 80 µM (inactive)	CCOc1ccc(-c2nnc3c4cc(OC)c(OC)cc4n(Cc4ccc(F)cc4)cc2-3)cc1
> 80 µM (inactive)	CCOc1ccccc1N1CCN(c2nc(C3CC3)nc3cc(OC)c(OC)cc23)CC1
> 80 µM (inactive)	COc1cc2c3nnc(-c4ccc(F)cc4)c-3cn(Cc3ccncc3)c2cc1OC
> 80 µM (inactive)	COc1cc2nc(CCN(C)C)nc(N3CCN(c4ccccc4OC)CC3)c2cc1OC
inactive	COc1ccc(-c2nnc3c4cc(OC)c(OC)cc4n(Cc4ccccc4)cc2-3)cc1
inactive	COc1cc2c3nnc(-c4ccc(F)cc4)c-3cn(Cc3ccc(F)cc3)c2cc1OC
inactive	Cc1ccc(-c2nnc3c4cc5c(cc4n(Cc4ccc(F)cc4)cc2-3)OCO5)cc1
> 80 µM (inactive)	COc1cc2nc(C3CC3)nc(N3CCN(c4ccccc4Cl)CC3)c2cc1OC
3.61 µM	COc1cc2c3nnc(-c4ccc(F)cc4)c-3cn(Cc3ccccc3F)c2cc1OC
inactive	COc1cc2c3nnc(-c4ccccc4)c-3cn(Cc3ccccc3)c2cc1OC
8.47 µM	COc1cc2c3nnc(-c4ccc(Cl)cc4)c-3cn(Cc3ccccc3)c2cc1OC
> 80 µM (inactive)	COc1ccc2c3nnc(-c4ccc(C)cc4)c-3cn(Cc3ccc(F)cc3)c2c1
> 80 µM (inactive)	COc1ccc2c3nnc(-c4ccc(C)cc4)c-3cn(Cc3ccc(C)cc3)c2c1
15 µM and 15.7 µM	COc1cc2c3nnc(-c4ccc(F)cc4)c-3cn(Cc3ccc(C)cc3)c2cc1OC

More lines, now with the values behind:

SMILES	EC50
COc1cc2c3nnc(-c4ccc(F)cc4)c-3cn(Cc3ccc(Cl)cc3)c2cc1OC	15.8 µM
COc1ccccc1CN1CCN(c2nc(C3CC3)nc3cc(OC)c(OC)cc23)CC1	> 80 µM (inactive)
COc1cccc(OC)c1-c1nc(C(=O)N[C@H](CC(C)C)C(=O)O)cn1-c1ccnc2cc(Cl)ccc12	> 80 µM (inactive)
COc1cc2nc(C3CC3)nc(N3CCN(C(=O)c4ccccc4OC)CC3)c2cc1OC	> 80 µM (inactive)
CCc1nc(N2CCN(c3ccccc3OC)CC2)c2cc(OC)c(OC)cc2n1	> 80 µM (inactive)
COc1cc2nc(C3CCC3)nc(N3CCN(c4ccccc4Cl)CC3)c2cc1OC	> 80 µM (inactive)
COc1cc2c3nnc(-c4ccccc4)c-3cn(Cc3ccc(F)cc3)c2cc1OC	> 80 µM (inactive)
COc1cccc(OC)c1-c1nc(C(=O)N[C@@H](CC(C)C)C(=O)O)cn1-c1ccnc2cc(Cl)ccc12	> 80 µM (inactive)
COc1cc2c3nnc(-c4ccc(F)cc4)c-3cn(Cc3ccccc3N(C)C)c2cc1OC	4.37 µM and 3.73 µM
COc1cc2nc(CC3CC3)nc(N3CCN(c4ccccc4OC)CC3)c2cc1OC	> 80 µM (inactive)
COc1cc2c3nnc(-c4ccc(Cl)cc4)c-3cn(Cc3ccc(F)cc3)c2cc1OC	8.36 µM
COc1cc2c3nnc(-c4ccc(F)cc4)c-3cn(Cc3cccc(C)c3)c2cc1OC	10.2 µM and 9.29 µM
COc1ccccc1-c1cc(C(=O)N[C@@H](CC(C)C)C(=O)O)nn1-c1ccnc2cc(Cl)ccc12	> 80 µM (inactive)
Fc1ccc(Cn2cc3c(-c4ccc(Cl)cc4)nnc-3c3cc4c(cc32)OCO4)cc1	inactive
COc1cc2c3nnc(-c4ccc(C)cc4)c-3cn(Cc3ccc(C)cc3)c2cc1OC	12.7 µM
CCOc1ccc(-c2nnc3c4cc(OC)c(OC)cc4n(Cc4ccccc4)cc2-3)cc1	> 80 µM (inactive)
COc1cc2nc(C3CCC3)nc(N3CCN(c4ccccc4[N+](=O)[O-])CC3)c2cc1OC	> 80 µM (inactive)

SMILES	EC50
COc1cc2nc(C3CCC3)nc(N3CCN(c4ccccc4)CC3)c2cc1OC	> 80 µM (inactive)
Cc1ccc(Cn2cc3c(-c4ccc(C)c(C)c4)nnc-3c3cc4c(cc32)OCO4)cc1	inactive
COc1cccc(OC)c1-c1nc(C(=O)N[C@@H](CC(C)C)C(=O)O)cn1-c1ccnc2ccccc12	> 80 µM (inactive)
COc1cc2nc(C(C)C)nc(N3CCN(c4ccccc4OC)CC3)c2cc1OC	> 80 µM (inactive)
CCCc1nc(N2CCN(c3ccccc3OC)CC2)c2cc(OC)c(OC)cc2n1	> 80 µM (inactive)
COc1cc2nc(C3CC3)nc(N3CCN(c4ccccc4OC)CC3)c2cc1OC	> 80 µM (inactive)
Cc1cccc(C)c1-c1nc(C(=O)N[C@@H](CC(C)C)C(=O)O)cn1-c1ccnc2cc(Cl)ccc12	> 80 µM (inactive)
COc1cc2c3nnc(-c4ccc(C)c(C)c4)c-3cn(Cc3ccccc3)c2cc1OC	> 80 µM (inactive)
Cc1ccc(-c2nnc3c4cc5c(cc4n(Cc4ccccc4)cc2-3)OCO5)cc1C	1.78 µM
CCOc1ccc(-c2nnc3c4cc(OC)c(OC)cc4n(Cc4ccc(C)cc4)cc2-3)cc1	> 80 µM (inactive)
COc1cc2nc(C3CCC3)nc(N3CCN(c4ccccc4C)CC3)c2cc1OC	> 80 µM (inactive)
COc1cccc(OC)c1-c1cc(C(=O)N[C@@H](CC(C)C)C(=O)OC(C)(C)C)nn1-c1ccnc2cc(Cl)ccc12	> 80 µM (inactive)
COc1ccc2c3nnc(-c4ccc(C)cc4)c-3cn(Cc3ccccc3)c2c1	inactive
COc1ccc2nc(C3CCC3)nc(N3CCN(c4ccccc4OC)CC3)c2c1	> 80 µM (inactive)
COc1cccc(OC)c1-c1nc(C(=O)N[C@@H](CC(C)C)C(=O)O)cn1-c1cccc2ccccc12	> 80 µM (inactive)
COc1cc2nc(CC(C)C)nc(N3CCN(c4ccccc4OC)CC3)c2cc1OC	> 80 µM (inactive)
